The subject of the first test is Ovalbumine-induced Asthma Bronchiale of Mice. The test can be described thus: Ovalbumine-induced asthma bronchiale of mice, pulmonal function (EF50). Format: in vivo, Balb/c Mice. The conditions noted are these: 0.1 mg (of each) inhibitor i.p. on days 28-35; FIG. 3A. From the text: Therapeutic Effect of the Combined Inhibition of Dipeptidyl Peptidase IV and of Enzymes Having an Analogous Effect as well as of the Alanyl Aminopeptidase and of Enzymes Having an Analogous Effect on the Ovalbumine-induced Asthma Bronchiale of Mice (Animal Model of Human Asthma Bronchiale).
Female Balb/c Mice were sensitized for the antigen ovalbumine capable of inducing asthma bronchiale by an intreperitoneal administration of […] ovalbumine on the days 0, 14 and 21. On day 27/28, the animals received a boostering dose of ovalbumine by inhalation [vD3]. After an intreperitoneal administration of the peptidase inhibitors on the days 28-35, there was effected an intranasal ovalbumine challenge on day 35, as well as a check of the allergic premature reaction via the pulmonal function. There were measured: the average expiratory flux (EF50), the tidal volume, the respiration rate and the minute volume as well as the number of eosinophilic granulocytes in the bronchoalveolar lavage. 8 to 10 animals were used per experimental group. By way of example, in FIG. 3A, there is summarized the effect of the peptidase inhibitors on the reduction of the EF50 value. […] Group E represents animals which were not sensitized by OVA, but which were subjected—beyond that—all procedures to which the animal groups A to D were subjected.
As for `CCCCC[C@H](CC(=O)NO)C(=O)N[C@H](C(=O)N1CCC[C@H]1CO)C(C)C` [Actinonine], the “therapeutic effect on the reduction of the EF50 value” is “showed a therapeutic effect”. Consider `N[C@@H](CCCCNC(=O)OCc1ccc([N+](=O)[O-])cc1)C(=O)N1CCCC1` [Lys[Z(NO2)] pyrrolidide], for which the “therapeutic effect on the reduction of the EF50 value” was “showed a therapeutic effect”.

For another test, the system named is Dextran Sulfate-induced Colitis of Mice. Put plainly: Dextran sulfate-induced colitis of mice, disease score. Format: in vivo, Balb/c mice. The conditions noted are these: 10 pg single inhibitor i.p. on three successive days from day 5; day 7; slight, but insignificant.
On to `CCCCC[C@H](CC(=O)NO)C(=O)N[C@H](C(=O)N1CCC[C@H]1CO)C(C)C` [Actinonine], for which the “reduction of the heaviness of the disease (score)” value is −16.5%.

For another test, the target named is dipeptidyl peptidase IV (Homo sapiens, UniProt P27487). Put plainly: biochemical. The conditions noted are these: values marked with "*" are ID50 values; read-out: IC50DPIV, values marked with "*" = ID50.
Chain of dipeptidyl peptidase IV (P27487 whole entry, species assumed): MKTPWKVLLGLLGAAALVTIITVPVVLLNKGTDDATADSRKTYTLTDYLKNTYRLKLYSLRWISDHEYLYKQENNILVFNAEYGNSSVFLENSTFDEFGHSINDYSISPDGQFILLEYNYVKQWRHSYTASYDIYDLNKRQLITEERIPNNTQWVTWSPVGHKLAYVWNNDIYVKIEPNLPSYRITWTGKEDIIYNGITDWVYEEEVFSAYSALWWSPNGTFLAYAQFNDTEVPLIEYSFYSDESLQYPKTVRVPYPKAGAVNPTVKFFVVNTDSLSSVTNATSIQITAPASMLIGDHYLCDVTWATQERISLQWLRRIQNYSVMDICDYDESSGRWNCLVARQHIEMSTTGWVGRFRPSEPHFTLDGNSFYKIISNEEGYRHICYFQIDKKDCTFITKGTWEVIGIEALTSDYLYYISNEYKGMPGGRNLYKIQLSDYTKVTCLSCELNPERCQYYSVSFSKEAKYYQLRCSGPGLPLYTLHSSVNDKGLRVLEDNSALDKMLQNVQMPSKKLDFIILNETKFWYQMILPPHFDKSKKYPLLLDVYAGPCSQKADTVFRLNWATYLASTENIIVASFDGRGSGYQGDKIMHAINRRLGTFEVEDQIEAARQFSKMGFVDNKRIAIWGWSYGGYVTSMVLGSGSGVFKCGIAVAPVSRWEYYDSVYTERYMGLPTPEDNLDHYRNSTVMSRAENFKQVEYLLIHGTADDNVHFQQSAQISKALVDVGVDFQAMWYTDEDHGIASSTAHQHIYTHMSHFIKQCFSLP
In the case of `Cn1c(=O)c2c(nc(NCC(O)CO)n2Cc2ccccc2Cl)n(C)c1=O` (stereo not drawn) [D12.040], the IC50 turned out to be 83.3 µM. Regarding `COC(=O)c1cccc(NC(=O)/C(=C\c2ccc3c(c2)OCO3)NC(=O)c2ccc(Br)o2)c1` [D12.043], the IC50 turned out to be 92.2 µM. For the molecule `COc1ccc(/C=C2\C(=O)N(c3ccccc3)C3=C2C(c2ccc(Br)cc2)N(c2ccccc2)C3=O)cc1` (stereo not drawn) [D12.047], the IC50 was determined as 198 µM. Consider `CCCn1c(N2CCN(CC(=O)Nc3c(C(=O)OCC)[nH]c4ccc(F)cc34)CC2)nc2c1c(=O)[nH]c(=O)n2C` [D13.004], for which the IC50 is 69.8 µM. As to `CCOC(=O)CC(N)c1ccc(OC)cc1` (stereo not drawn) [D13.006], the IC50 was 83.3 µM. Consider `CN(C)c1ccc(C2C3C(=O)N(c4ccccc4)C(=O)C3ON2c2ccc(Cl)cc2)cc1` (stereo not drawn) [D13.007], for which the IC50 was 344 µM. On to `CCC(O)(CC)C(=O)NNc1ccc(C)cc1C` [D14.001], for which the IC50 stood at 1.2 µM.

With `O=C(Nc1cccc(/N=C/c2cc(/N=N\c3ccccc3Cl)ccc2O)c1)c1ccco1` [D14.002], the IC50 was 2.5 µM. For the molecule `CCC(O)(CC)C(=O)NN(C(=O)CNS(=O)(=O)c1ccc(C)cc1)c1ccccc1` [D14.007], the IC50 worked out at 456 µM.

Staying with this test, now noted: values without "*" = IC-50; read-out: IC50DPIV.
Consider `Cc1csc(/C(=N\OC(=O)c2ccco2)C(N)=O)n1` [D11.009], for which the IC50 turned out to be 32.8 µM.

On to `CCc1c(C)[nH]c2c1/C(=N/OC(=O)C(C)C)CCC2` [D11.010], for which the IC50 turned out to be 43.8 µM. Turning to `COC(=O)O/N=C(/N)c1nonc1N` [D11.011], the IC50 came out at 44.3 µM. As for `Cn1c(=O)c2c(nc(NCCCCO)n2Cc2ccccc2Cl)n(C)c1=O` [D12.002], the IC50 was 16.2 µM. In the case of `CC1CCN(C(=O)/C(=C\c2ccco2)NC(=O)c2ccc(Cl)cc2)CC1` [D12.004], the IC50 was 18.5 µM. With `CN(C)c1ccc(C2C=C(Nc3ccccc3)C(=O)N2c2ccccc2)cc1` (stereo not drawn) [D12.006], the IC50 is 20.4 µM. As for `CCCn1c(N2CCN(CC(=O)c3c[nH]c4ccccc34)CC2)nc2c1c(=O)[nH]c(=O)n2C` [D12.012], the IC50 amounted to 30.8 µM.

As to `O=C(Nc1c[nH]c(=O)[nH]c1=O)c1ccc2c(c1)C(=O)N(c1ccc(C(=O)c3ccccc3)cc1)C2=O` [D12.016], the IC50 is 38.2 µM. On to `CCOC(=O)c1c(C)oc2c1c1c(c3ccccc32)OCN(C2CCS(=O)(=O)C2)C1` (stereo not drawn) [D12.017], for which the IC50 was determined as 34.2 µM. Consider `Cc1ccc(C(=O)N/C(=C\c2ccco2)C(=O)N2CCOCC2)cc1C` [D12.025], for which the IC50 came to 46.5 µM. `CCCCOC(=O)c1cc(-c2ccc(/C=C3/C(=O)N(CC(C)O)C(=O)C(C#N)=C3C)o2)ccc1Cl` (stereo not drawn) [D12.027]: the IC50 was 49 µM. Regarding `CC(=O)Oc1ccc2oc(=O)c3c(c2c1)CCCN3C(C)=O` [D12.029], the IC50 turned out to be 59.4 µM.

Take `CCOC(=O)c1n[nH]c2c1CN(c1ccc([N+](=O)[O-])cc1)C2=O` [D12.031]: the IC50 amounted to 54.5 µM. Regarding `O=C(N/N=C/c1cc(Br)c(O)c(Br)c1O)/C(=C\c1ccc2c(c1)OCO2)NC(=O)c1ccccc1` [D12.032], the IC50 was 60 µM.

Take `COC(=O)C1=CN(N(C(C)=O)C(C)=O)C(=O)CC1` [D12.033]: the IC50 was found to be 60.7 µM. On to `CCCOC(=O)c1cc(-c2ccc(/C=C3\C(=O)NC(=O)C(C#N)=C3C)o2)ccc1Cl` [D12.034], for which the IC50 worked out at 65.3 µM. With `Cc1ccc(C(=O)N/C(=C/c2ccco2)C(=O)N(C)C)cc1` [D12.038], the IC50 is 47.7 µM. Turning to `Nc1nonc1-n1nnc(C(=O)NN=C2c3ccccc3-c3ccccc32)c1-c1ccccc1` [D13.001], the IC50 turned out to be 10.1 µM. Regarding `COCC(=O)CC(N)c1ccc(C)cc1` (stereo not drawn) [D13.002], the IC50 was found to be 23.3 µM. As to `CC(N)C(CC(=O)O)c1ccccc1` (stereo not drawn) [D13.003], the IC50 worked out at 38 µM. Regarding `CCOC(=O)CC(N)c1ccccc1Cl` (stereo not drawn) [D13.005], the IC50 was determined as 72.2 µM.

As for `CCC(O)(CC)C(=O)NNc1ccccc1C` [D14.003], the IC50 was found to be 5.7 µM.

With `O=C(NNC1=C(Cl)C(=O)C(Cl)(Cl)C1=O)c1ccccc1` [D14.004], the IC50 was determined as 26.2 µM. Consider `CCC(O)(CC)C(=O)NNc1ccc(C)cc1` [D14.005], for which the IC50 was 26.7 µM.
